Measured values as given in patent publication US20240368096A1 (Enanta Pharmaceuticals, Inc., priority 2022, published 2024).
Where two headings read alike, the source gives them in different places.

What was measured:
HBV = HBV infection in HepG2-NTCP cells (HBeAg AlphaLISA in supernatants); assay type: cell-based; conditions: Hepatitis B virus, 192 h
In short: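 Readout was day-8 supernatant HBeAg by AlphaLISA, with EC50 set against DMSO controls and binned A<0.1 μM, B 0.1-1 μM, C>1 μM. Compounds were added 2 h before HBV (2000 GE/cell, 4% PEG, 0.5% DMSO) to HepG2-NTCP A3 cells; from day 1 medium held 2.5% DMSO.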

NTCP = biological target: T1, NTCP (Homo sapiens, UniProt Q14973); experiment: HepG2-NTCP preS1 binding competition assay (FITC-labeled myristoylated preS1 peptide); conditions: HepG2-NTCP cells; competition with FITC-labeled preS1 peptide
T1 construct: expressed in transfected cells; host or cells: HepG2-NTCP (clone A3, kept under puromycin)
T1 sequence (Q14973 1-349): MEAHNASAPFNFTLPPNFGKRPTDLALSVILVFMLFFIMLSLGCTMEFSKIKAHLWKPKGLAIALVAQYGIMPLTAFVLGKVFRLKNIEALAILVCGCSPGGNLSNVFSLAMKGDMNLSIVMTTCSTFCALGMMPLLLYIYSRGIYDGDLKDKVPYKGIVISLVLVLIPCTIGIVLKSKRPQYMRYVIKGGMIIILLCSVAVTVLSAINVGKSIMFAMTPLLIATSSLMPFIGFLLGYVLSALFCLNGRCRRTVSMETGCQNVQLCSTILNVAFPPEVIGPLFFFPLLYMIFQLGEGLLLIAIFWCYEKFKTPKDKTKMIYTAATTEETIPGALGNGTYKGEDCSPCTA
Protocol: HepG2-NTCP preS1 Binding Competition Assay
Myristoylated preS1 peptide (2-48 aa) conjugated to a C-terminal FITC tag was synthesized to evaluate preS1 binding to NTCP-expressing cells. HepG2-NTCP cells seeded in 384-wells were pre-treated with compounds for 2 hours prior to the addition of FITC-labeled preS1 peptide. After co-incubation for 30 minutes, unbound FITC-preS1 peptide was washed twice with PBS, and the fluorescence of preS1-FITC bound to cell surface was detected by Envision plate reader. EC50 ranges are as follows: A<0.1 μM; B 0.1-1 μM; C>1 μM.

[1] = HBV infection of HepG2-NTCP cells, HBeAg in supernatants at day 8 post infection, read-out: Cellular EC50

EC50 (HBV; [1]) [µM]	EC50 (NTCP) [nM]	Structure (SMILES)	EC50 (HBV; read-out: Cellular EC50 (μM)) [µM]
< 0.1	< 100	CN1[C@H](C2CCCCC2)CN(c2ccccc2)c2cc(Cl)c(N3CCC(F)(C(=O)O)C3)cc2S1(=O)=O (mixture of isomers) [Example 609, 1-((R)-7-chloro-3-cyclohexyl-2-methyl-1,1-dioxido-5-phenyl-2,3,4,5-tetrahydrobenzo[f][1,2,5]thiadiazepin-8-yl)-3-fluoropyrrolidine-3-carboxylic acid]	
0.1 to 1	100 to 1000	CN1[C@H](C2CCCCC2)CN(c2ccccc2)c2cc(Cl)c(-c3ccc(N)c(C(=O)O)c3)cc2S1(=O)=O [Example 157, (R)-2-amino-5-(7-chloro-3-cyclohexyl-2-methyl-1,1-dioxido-5-phenyl-2,3,4,5-tetrahydrobenzo[f][1,2,5]thiadiazepin-8-yl)benzoic acid]	
	100 to 1000	CN1[C@H](C2CCCCC2)CN(c2ccccc2)c2cc(Cl)c(-c3cc(Cl)c(N)c(C(=O)O)c3)cc2S1(=O)=O [Example 192]	
	> 1000	CN1[C@H](C2CCCCC2)CN(c2ccccc2)c2cc(Cl)c(-c3ccc(S(N)(=O)=O)s3)cc2S1(=O)=O [Example 201]	
0.1 to 1	100 to 1000	CC(=O)NS(=O)(=O)c1ccc(-c2cc3c(cc2Cl)N(c2ccccc2)C[C@@H](C2CCCCC2)N(C)S3(=O)=O)s1 [Example 225]	
	100 to 1000	CN1[C@H](C2CCCCC2)CN(c2ccccc2)c2cc(Cl)c(-c3ccc(S(=O)(=O)NC(=O)c4ccccc4)s3)cc2S1(=O)=O [Example 226]	
	100 to 1000	CC(C)C(=O)NS(=O)(=O)c1ccc(-c2cc3c(cc2Cl)N(c2ccccc2)C[C@@H](C2CCCCC2)N(C)S3(=O)=O)s1 [Example 227]	
< 0.1	< 100	CN1[C@H](C2CCCCC2)CN(c2ccccc2)c2cc(F)c(-c3ccc(NC(=O)OCc4ccccc4)c(C(=O)O)c3)cc2S1(=O)=O [Example 235, (R)-2-(((benzyloxy)carbonyl)amino)-5-(3-cyclohexyl-7-fluoro-2-methyl-1,1-dioxido-5-phenyl-2,3,4,5-tetrahydrobenzo[f][1,2,5]thiadiazepin-8-yl)benzoic acid]	
< 0.1	< 100	COC(C)(C)COC(=O)Nc1cc(-c2cc3c(cc2Cl)N(c2ccccc2)C[C@@H](C2CCCCC2)N(C)S3(=O)=O)sc1C(=O)O [Example 239, (R)-5-(7-chloro-3-cyclohexyl-2-methyl-1,1-dioxido-5-phenyl-2,3,4,5-tetrahydrobenzo[f][1,2,5]thiadiazepin-8-yl)-3-(((2-methoxy-2-methylpropoxy)carbonyl)amino)thiophene-2-carboxylic acid]	
< 0.1	< 100	CCOC(=O)Nc1cc(-c2cc3c(cc2Cl)N(c2ccccc2)C[C@@H](C2CCCCC2)N(C)S3(=O)=O)sc1C(=O)O [Example 240]	
< 0.1	< 100	CC(C)COC(=O)Nc1cc(-c2cc3c(cc2Cl)N(c2ccccc2)C[C@@H](C2CCCCC2)N(C)S3(=O)=O)sc1C(=O)O [Example 241]	
< 0.1	< 100	CN1[C@H](C2CCCCC2)CN(c2ccccc2)c2cc(Cl)c(-c3cc(NC(=O)OCC(F)F)c(C(=O)O)s3)cc2S1(=O)=O [Example 242]	
< 0.1	< 100	CCCCOC(=O)Nc1cc(-c2cc3c(cc2Cl)N(c2ccccc2)C[C@@H](C2CCCCC2)N(C)S3(=O)=O)sc1C(=O)O [Example 246]	
	< 100	CN1[C@H](C2CCCCC2)CN(c2ccccc2)c2cc(Cl)c(-c3cc(NC(=O)OCCOC(C)(C)C)c(C(=O)O)s3)cc2S1(=O)=O [Example 262]	
	< 100	COCCCOC(=O)Nc1cc(-c2cc3c(cc2Cl)N(c2ccccc2)C[C@@H](C2CCCCC2)N(C)S3(=O)=O)sc1C(=O)O [Example 263]	
	< 100	COC1CC(OC(=O)Nc2cc(-c3cc4c(cc3Cl)N(c3ccccc3)C[C@@H](C3CCCCC3)N(C)S4(=O)=O)sc2C(=O)O)C1 (stereo partly drawn) [Example 264]	
< 0.1	< 100	CCCCCCS(=O)(=O)Nc1ccc(-c2cc3c(cc2Cl)N(c2ccccc2)C[C@@H](C2CCCCC2)N(C)S3(=O)=O)cc1C(=O)O [Example 273]	
< 0.1	< 100	CCCS(=O)(=O)Nc1ccc(-c2cc3c(cc2Cl)N(c2ccccc2)C[C@@H](C2CCCCC2)N(C)S3(=O)=O)cc1C(=O)O [Example 274]	
< 0.1	< 100	CCCS(=O)(=O)Nc1cc(-c2cc3c(cc2Cl)N(c2ccccc2)C[C@@H](C2CCCCC2)N(C)S3(=O)=O)sc1C(=O)O [Example 275, (R)-5-(7-chloro-3-cyclohexyl-2-methyl-1,1-dioxido-5-phenyl-2,3,4,5-tetrahydrobenzo[f][1,2,5]thiadiazepin-8-yl)-3-(propylsulfonamido)thiophene-2-carboxylic acid]	

EC50 (HBV; [1]) [µM]	EC50 (NTCP) [nM]	Structure (SMILES)	EC50 (HBV; read-out: Cellular EC50 (μM)) [µM]
	> 1000	CN(C)C(=O)c1ccc(N2C[C@@H](C3CCCCC3)N(C)S(=O)(=O)c3cc(-c4ccc(F)c(C(=O)O)c4)c(Cl)cc32)cc1 [Example 315]	
	100 to 1000	CN1[C@H](C2CCCCC2)CN(c2ccccc2)c2cc(OC3COC3)c(-c3ccc(F)c(C(=O)O)c3)cc2S1(=O)=O [Example 370]	
	100 to 1000	CN1[C@H](C2CCCCC2)CN(c2ccccc2)c2cc(O[C@H]3C[C@H](O)C3)c(-c3cc(F)c(C(=O)O)s3)cc2S1(=O)=O [Example 503]	
0.1 to 1		CC(C)C[C@@H]1CN(c2ccccc2)c2cc(C3CCN(C(=O)OC(C)(C)C)CC3)c(-c3ccc(F)c(C(=O)O)c3)cc2S(=O)(=O)N1C [Example 592]	
0.1 to 1		CN1[C@H](C2CCCCC2)CN(c2ccccc2)c2cc(C3CCN(C(=O)OC(C)(C)C)C3)c(-c3ccc(F)c(C(=O)O)c3)cc2S1(=O)=O (stereo partly drawn) [Example 593]	
0.1 to 1		CN1[C@H](C2CCCCC2)CN(c2ccccc2)c2cc(C3CN(C(=O)OC(C)(C)C)C3)c(-c3ccc(F)c(C(=O)O)c3)cc2S1(=O)=O [Example 594]	
> 1		CN1[C@H](C2CCCCC2)CN(c2ccccc2)c2cc(C3CCNCC3)c(-c3ccc(F)c(C(=O)O)c3)cc2S1(=O)=O [Example 596]	
> 1		CC(=O)N1CCC(c2cc3c(cc2-c2ccc(F)c(C(=O)O)c2)S(=O)(=O)N(C)[C@H](C2CCCCC2)CN3c2ccccc2)CC1 [Example 597]	
> 1		CN1[C@H](C2CCCCC2)CN(c2ccccc2)c2cc(C3CCN(C(=O)c4cnn(C)c4)CC3)c(-c3ccc(F)c(C(=O)O)c3)cc2S1(=O)=O [Example 598]	
> 1		CN1[C@H](C2CCCCC2)CN(c2ccccc2)c2cc(C3CCN(C(=O)c4ccno4)CC3)c(-c3ccc(F)c(C(=O)O)c3)cc2S1(=O)=O [Example 599]	
> 1		COCCC(=O)N1CCC(c2cc3c(cc2-c2ccc(F)c(C(=O)O)c2)S(=O)(=O)N(C)[C@H](C2CCCCC2)CN3c2ccccc2)CC1 [Example 600]	
0.1 to 1		CN1[C@H](C2CCCCC2)CN(c2ccccc2)c2cc(C3CCN(C(=O)C(F)(F)F)C3)c(-c3ccc(F)c(C(=O)O)c3)cc2S1(=O)=O (stereo partly drawn) [Example 601]	
< 0.1		CN1[C@H](C2CCCCC2)CN(c2ccccc2)c2cc(C#Cc3ccsc3)c(-c3ccc(F)c(C(=O)O)c3)cc2S1(=O)=O [Example 602, (R)-5-(3-cyclohexyl-2-methyl-1,1-dioxido-5-phenyl-7-(thiophen-3-ylethynyl)-2,3,4,5-tetrahydrobenzo[f][1,2,5]thiadiazepin-8-yl)-2-fluorobenzoic acid]	
0.1 to 1		CN1[C@H](C2CCCCC2)CN(c2ccccc2)c2cc(C#CC(C)(C)O)c(-c3ccc(F)c(C(=O)O)c3)cc2S1(=O)=O [Example 603]	
< 0.1		COC(C)(C)C#Cc1cc2c(cc1-c1ccc(F)c(C(=O)O)c1)S(=O)(=O)N(C)[C@H](C1CCCCC1)CN2c1ccccc1 [Example 604]	
> 1		CN1[C@H](C2CCCCC2)CN(c2ccccc2)c2cc(Cl)c([C@H]3C[C@@H](C(=O)O)C3)cc2S1(=O)=O [Example 607, (1S,3s)-3-((R)-7-chloro-3-cyclohexyl-2-methyl-1,1-dioxido-5-phenyl-2,3,4,5-tetrahydrobenzo[f][1,2,5]thiadiazepin-8-yl)cyclobutane-1-carboxylic acid]	
	100 to 1000	CN1[C@H](C2CCCCC2)CN(c2ccccc2)c2cc(Cl)c(N3CC[C@@H](C(=O)O)C3)cc2S1(=O)=O [Example 610]	
	100 to 1000	CN1[C@H](C2CCCCC2)CN(c2ccccc2)c2cc(Cl)c(N3CC[C@H](C(=O)O)C3)cc2S1(=O)=O [Example 611]	

Structure (SMILES)	EC50 (HBV; [1]) [µM]	EC50 (NTCP) [nM]	EC50 (HBV; read-out: Cellular EC50 (μM)) [µM]
COc1ccccc1N1C[C@@H](C2CCCCC2)N(C)S(=O)(=O)c2cc(-c3ccc(F)c(C(=O)O)c3)c(Cl)cc21 [Example 304, (R)-5-(7-chloro-3-cyclohexyl-5-(2-methoxyphenyl)-2-methyl-1,1-dioxido-2,3,4,5-tetrahydrobenzo[f][1,2,5]thiadiazepin-8-yl)-2-fluorobenzoic acid]		> 1000	> 1
